Laboratory results reported in patent publication US10342221B2, “Generation of an inducible pericyte-specific CRE mouse model” (University of Southern California, priority 2016, dated 2019).
Like-named read-outs stand apart in the source and are kept apart here.

Key:
[1] = system: pericytes expressing Cre-dependent diphtheria toxin receptor
Protocol: (§1) Animals were sacrificed at 3 days post DT or vehicle treatment (FIG. 3A) or 15 days post DT or vehicle treatment (FIG. 4A) as indicated, and brains were collected and analyzed.
(§2) Animals were anesthetized with an i.p. injection of 100 mg/kg of ketamine and 50 mg/kg of 10 xylazine, and transcardially perfused first with 15 ml saline, followed by 20 ml of 4% paraformaldehyde (PFA) in PBS. Brains were removed, and post-fixed overnight at 4° C. before brain sections were cut at 30 μm thickness. Sections were blocked with 5% normal donkey serum (Vector Laboratories)/0.1% Triton-X/0.01M PBS and incubated with primary antibody diluted in blocking solution overnight at 4° C. […] To visualize brain microvessels, sections were incubated with Dylight 488-conjugated L. esculentum Lectin as the Inventors have previously reported. […] Sections were imaged with a Zeiss LSM 510 confocal laser-scanning microscope using a series of high-resolution optical sections (1,024×1,024-pixel format) that were captured with a 25× water-immersion objective, with 1× zoom at 1-μm step intervals for Z-stacks. Laser settings for gain, digital offset and laser intensity were kept standardized between different treatments and experiments. Z-stack projections and pseudo-coloring were performed using ZEN software (Carl Zeiss Microimaging), and image post-analysis were performed using ImageJ software.
Tissue was incubated for 30 min in 20 μg/ml Proteinase K and the In Situ Cell Death Detection Kit (Roche) was used per the manufacturer's instructions. Sections were coverslipped as described above. For each image, ten microns maximum projection z-stacks were reconstructed and analyzed using ImageJ. […] In each animal 5 randomly selected fields from the cortex were analyzed in 3 nonadjacent sections (˜100 μm apart). Three animals per group were analyzed.
The quantitative analysis of pericyte coverage and numbers was restricted to CD13-positive cells that were associated with brain capillaries defined as microvessels ≤6 μm in diameter, as previously described. The endothelial-specific Lycopersicon esculentum lectin was used to visualize endothelial vascular profiles, and CD13 coverage of brain capillaries was determined as CD13-positive area (percentage) occupying lectin-positive endothelial capillary profiles, as previously. For each image, ten microns maximum projection z-stacks were reconstructed and analyzed using ImageJ. Pericyte numbers were determined by counting the number of CD13-positive cell bodies on the abluminal side of the endothelial membrane (lectin) that co-localized with DAPI (4′,6-diamidino-2-phenylindole)-positive nuclei and tdTomato-positive cell bodies using the Image J Cell Counter plug-in, as the Inventors and others previously described. The number of pericytes was expressed per mm^2 of tissue.

[2] = system: pericytes expressing Cre-dependent diphtheria toxin receptor; type: in vivo, mouse; settings: TAM-treated Pericyte-CreER; iDTR mice; DT 1 μg i.p. per day for 10 days; 3 days after DT; versus vehicle
neurons = experiment: NeuN-positive neuron numbers and SMI-312 neuritic density
Protocol: as §1
Animals were anesthetized with an i.p. injection of 100 mg/kg of ketamine and 50 mg/kg of 10 xylazine, and transcardially perfused first with 15 ml saline, followed by 20 ml of 4% paraformaldehyde (PFA) in PBS. Brains were removed, and post-fixed overnight at 4° C. before brain sections were cut at 30 μm thickness. Sections were blocked with 5% normal donkey serum (Vector Laboratories)/0.1% Triton-X/0.01M PBS and incubated with primary antibody diluted in blocking solution overnight at 4° C. […] Sections were imaged with a Zeiss LSM 510 confocal laser-scanning microscope using a series of high-resolution optical sections (1,024×1,024-pixel format) that were captured with a 25× water-immersion objective, with 1× zoom at 1-μm step intervals for Z-stacks. Laser settings for gain, digital offset and laser intensity were kept standardized between different treatments and experiments. Z-stack projections and pseudo-coloring were performed using ZEN software (Carl Zeiss Microimaging), and image post-analysis were performed using ImageJ software.
For each image, ten microns maximum projection z-stacks were reconstructed and analyzed using ImageJ. NeuN-positive neurons were determined using the ImageJ Cell Counter analysis tool. In each animal, five randomly selected fields from the cortex and the hippocampus in three nonadjacent sections (˜100 μm apart) were analyzed. Six animals per group were analyzed.

[3] = system: cerebral blood flow (CBF) response; experiment: Cerebral blood flow responses by laser-Doppler flowmetry
Protocol: as §1
Animals were initially anesthetized with 100 mg/kg of ketamine and 50 mg/kg of xylazine and were placed on a heating pad (37° C.). The cranium of the mouse was firmly secured in a stereotaxic frame. A high speed dental drill (tip FST 19007-05, Fine Science Tools Inc., Foster City, Calif.) was used to thin a square cranial window about 2×2 mm over the parietal cortex, and 45 degree forceps were used to remove the square piece of skull. Gelfoam (Pharmacia & Upjohn Company, Kalamazoo, Mass.) was applied immediately to control any cranial or dural bleeding. A sterile 5 mm glass cover slip was then placed on the dura mater and sealed with a 1:1 mixture of bone cement and cyanoacrylate based glue.
CBF responses to hindlimb stimulation in anesthetized mice (˜1% isoflurane) were determined using laser-Doppler flowmetry as previously described. The tip of the laser-Doppler probe (Transonic Systems Inc., Ithaca, N.Y.) was stereotaxically placed 0.5 mm above the cranial window over the hindlimb region of the primary somatosensory cortical area. CBF was recorded following electrical stimulation of the hind-limb using a 60 s long stimulus (7 Hz, 2 ms pulse duration). The percentage increase in CBF due to stimulation was obtained by subtracting the baseline CBF from the stable maximum plateau value reached during stimulus, and averaged over three trials per mouse. For CBF response to drug application, the LDF probe was placed stereotaxically over the center of an open cranial window (center at AP=−0.94 mm, L=1.5 mm). Drugs (10 μM Acetylcholine, and 400 μM Adenosine, all from Sigma) were superfused individually over the window, and responses recorded, as the Inventors reported previously. Arterial blood pressure was monitored continuously during the experiment. pH and blood gases were monitored before and after CBF recordings.

hippocampal function = experiment: Behavioral tests: novel object location and contextual fear conditioning; type: in vivo, mouse
Protocol: Novel object location test was performed as the Inventors have previously reported. Animals were placed in a […] and allowed to habituate to the testing area for 10 min. Animals were then placed back in their cages and 2 identical approximately 5×5 cm objects were placed in the top left and right corner of the testing area. Animals were allowed to explore the two objects in the testing area for 5 min before being returned to their cages. After an hour interval one of the objects was relocated and the animals were allowed to explore the testing area once again for 3 min. After each trial, the testing area and the objects were thoroughly cleaned with 70% ethanol solution. All the trials, including habituation, were recorded with a high resolution camera and the amount of time each animal spent exploring the objects was analyzed. Any animals that presented a preference for either of the two identical objects, before replacement with the novel location, were eliminated from the analysis. Both male and female animals were used in the study.
Long-term memory formation paradigm in contextual fear conditioning was adapted from a previously described protocol with modifications. The experiment was performed using conditioning chamber made of plexiglas housed in a soundproof isolation cubicle and equipped with a stainless-steel grid floor connected to a solid-state shock scrambler. The scrambler was connected to an electronic constant-current shock source that was controlled via an interface connected to a computer running FreezeFrame software (Coulbourn Instruments, Allentown, Pa., USA). A digital camera was mounted on the steel ceiling and behavior was recorded. […] Hippocampus-dependent fear memory formation was evaluated by scoring freezing behavior (the absence of all movement except for respiration). Percentage of total freezing time was assessed using the automated FreezeFrame system with a threshold set at 10%. […]

blood-brain barrier = experiment: Blood-brain barrier integrity: extravascular IgG and fibrin deposits, ZO-1 tight junction length
Protocol: as §1, §2
For each image, ten microns maximum projection z-stacks were reconstructed and analyzed using ImageJ. The levels of extravascular blood-derived fibrin and IgG deposits indicating BBB breakdown were determined as previously described.
For each image, ten microns maximum projection z-stacks were reconstructed and analyzed using ImageJ. The length of ZO-1-positive tight junctions occupying lectin-positive capillary profiles was determined using the NeuronJ plugin for ImageJ, expressed as the length of ZO-1 (mm) over the lectin-positive capillary area (mm^2) as the Inventors have previously reported. ZO-1 and lectin stainings were performed as described above. The length of ZO1-positive tight junctions was normalized to the total area of lectin-positive microvessels using the Image J Area measurement tool.

[4] = cortex, TAM-treated pericyte-CreER, iDTR mice, 3 days after DT compared to vehicle
[5] = control iDTR animals treated with TAM and DT
[6] = somatosensory cortex and hippocampus, respectively, 15 days after DT compared to vehicle
[7] = TAM-treated pericyte-CreER, iDTR mice, 3 days after DT compared to vehicle

Substance: diphtheria toxin [DT]
- number of astrocytes, astrocytic endfeet coverage on microvessels or microglia density ([1]; 3 days after DT treatment): no changes were observed
- pericyte coverage ([1]; TAM-treated control iDTR mice, same DT injection protocol): no changes in pericyte coverage
- loss of tdTomato-positive pericytes in brain capillaries ([1]; cortex and hippocampus, 3 days after DT treatment compared to vehicle): 95%
- pericyte cell death by TUNEL staining of perivascular tdTomato-positive nuclei ([1]; cortex, 3 days after DT compared to vehicle): contained fragmented DNA
- reduction in pericyte capillary coverage (CD13 on lectin-positive profiles) [1, 4]: 50%
- reduction in pericyte density (CD13-positive pericyte cell bodies) [1, 4]: 60%
- reduction in pericyte density (CD13-positive pericyte cell bodies) ([1]; hippocampus, TAM-treated pericyte-CreER, iDTR mice, 3 days after DT compared to vehicle): 58%
- loss in DTR protein levels in brain capillaries [2]: 90%
- loss of PDGFRβ protein in brain capillaries [2]: 60%
- neuronal or neuritic changes (neurons; before DT treatment and 3 days after last DT injection compared to vehicle): No significant neuronal or neuritic changes
- neuron counts and neuritic density (neurons; [5]): normal neuron counts and neuritic density
- loss of NeuN-positive neuronal cell bodies (neurons; [6]): 20-25%
- reduction in SMI-312-positive neuritic density (neurons; [6]): 30-40%
- CBF response in the presence of acetylcholine ([3]; 10 μM acetylcholine superfused, 3 days after DT treatment or vehicle): no difference in CBF response
- CBF response in the presence of adenosine ([3]; 400 μM adenosine superfused, 3 days after DT treatment or vehicle): no difference in CBF response
- reduction in CBF response to hind limb electrical stimulus [3, 7]: 50%
- change in CBF responses ([3]; control iDTR animals that received TAM and DT treatment): No significant change
- novel object location and fear conditioning (hippocampal function; TAM-treated pericyte-CreER, iDTR mice, 15 days after DT treatment): significant behavior deficits
- novel object location and fear conditioning (hippocampal function; TAM-treated pericyte-CreER, iDTR mice, before treatment (0 d), 6 d of DT treatment, 3 days after last DT injection, versus vehicle): did not show deficits
- novel object location and fear conditioning (hippocampal function; [5]): no differences
- reduction in the ZO-1 length on brain capillaries (blood-brain barrier; [7]): 50%
- BBB changes (blood-brain barrier; control iDTR animals that received TAM and DT): did not show any BBB changes
- increase in fibrin deposits (blood-brain barrier; [4]): > 4 fold
- increase in plasma-derived immunoglobulin G deposits (blood-brain barrier; [4]): > 4 fold
- ZO-1 expression (blood-brain barrier; iDTR control animals treated with TAM and DT): No changes
